These compounds were tested against T1, human M4 muscarinic acetylcholine receptor (Homo sapiens, UniProt P08173) (assay: human FLIPR-based M4 PAM assay (Ca2+ mobilization, CHO-K1 cells with human M4 receptor and Gαqi5)). Settings: acetylcholine at 20% of maximum response, read-out: M4 PAM IP.
T1 construct: expressed in transfected cells; host or cells: CHO-K1
T1 sequence (P08173 1-479): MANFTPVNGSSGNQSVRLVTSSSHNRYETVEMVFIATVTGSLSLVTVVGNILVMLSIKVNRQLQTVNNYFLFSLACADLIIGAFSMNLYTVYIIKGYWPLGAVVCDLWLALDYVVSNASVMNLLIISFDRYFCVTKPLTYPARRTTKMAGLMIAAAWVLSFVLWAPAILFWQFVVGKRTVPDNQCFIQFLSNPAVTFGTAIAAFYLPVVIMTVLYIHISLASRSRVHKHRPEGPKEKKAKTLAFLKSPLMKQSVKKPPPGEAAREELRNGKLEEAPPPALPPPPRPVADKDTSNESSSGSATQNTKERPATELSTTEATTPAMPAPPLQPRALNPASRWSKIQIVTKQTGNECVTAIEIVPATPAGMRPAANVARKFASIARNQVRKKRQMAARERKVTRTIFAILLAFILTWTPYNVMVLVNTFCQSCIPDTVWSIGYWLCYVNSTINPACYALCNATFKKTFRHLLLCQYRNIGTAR
Assay type: cell-based
Outline: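 Calcium-mobilization (FLIPR) readout in dye-loaded CHO-K1 cells co-expressing human M4 receptor and Gαqi5. Potentiation measured against acetylcholine at a concentration giving 20% of maximal response, with an optional 70% addition; the reported value is the curve inflection point from a 4-parameter logistic fit.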

Row | SMILES | EC50 [µM]
1 | Cc1cc2c(nc1N1CCC(Oc3ccc(Cl)cc3)CC1)CNC2=O [Example 76, 2-(4-(4-chlorophenoxy)piperidin-1-yl)-3-methyl-6,7-dihydro-5H-pyrrolo[3,4-b]pyridin-5-one] | 0.08
2 | Cc1cc2c(nc1N1CCC(Oc3ccncc3)CC1)CNC2=O [Example 77, 3-methyl-2-(4-(pyridin-4-yloxy)piperidin-1-yl)-6,7-dihydro-5H-pyrrolo[3,4-b]pyridin-5-one] | 0.214
3 | Cc1cccc(OC2CCN(c3nc4c(cc3C)C(=O)NC4)CC2)c1 [Example 78, 3-methyl-2-(4-(m-tolyloxy)piperidin-1-yl)-6,7-dihydro-5H-pyrrolo[3,4-b]pyridin-5-one] | 0.033
4 | Cc1ccccc1OC1CCN(c2nc3c(cc2C)C(=O)NC3)CC1 [Example 79, 3-methyl-2-(4-(o-tolyloxy)piperidin-1-yl)-6,7-dihydro-5H-pyrrolo[3,4-b]pyridin-5-one] | 2.28
5 | Cc1cc2c(nc1N1CCC(Oc3ccc4ocnc4c3)CC1)CNC2=O [Example 80, 2-(4-(benzo[d]oxazol-5-yloxy)piperidin-1-yl)-3-methyl-6,7-dihydro-5H-pyrrolo[3,4-b]pyridin-5-one] | 0.069
6 | Cc1cc2c(nc1N1CCC(Oc3ccc(F)c(F)c3)CC1)CNC2=O [Example 81, 2-(4-(3,4-difluorophenoxy)piperi-din-1-yl)-3-methyl-6,7-dihydro-5H-pyrrolo[3,4-b]pyridin-5-one] | 0.037
7 | Cc1ccc(OC2CCN(c3nc4c(cc3C)C(=O)NC4)CC2)cc1Cl [Example 82, 2-(4-(3-chloro-4-methylphenoxy)piperidin-1-yl)-3-methyl-6,7-dihydro-5H-pyrrolo[3,4-b]pyridin-5-one] | 0.121
8 | Cc1ccc(OC2CCN(c3nc4c(cc3C)C(=O)NC4)CC2)cc1 [Example 83, 3-methyl-2-(4-(p-tolyloxy)piperidin-1-yl)-6,7-dihydro-5H-pyrrolo[3,4-b]pyridin-5-one] | 0.048
9 | Cc1cc2c(nc1N1CCC(Oc3ccc(C#N)cc3)CC1)CNC2=O [Example 84, 4-((1-(3-methyl-5-oxo-6,7-dihydro-5H-pyrrolo[3,4-b]pyridin-2-yl)piperidin-4-yl)oxy)benzonitrile] | 0.229
10 | Cc1cc2c(nc1N1CCC(Oc3ccc(C#N)nc3)CC1)CNC2=O [Example 85, 5-((1-(3-methyl-5-oxo-6,7-dihydro-5H-pyrrolo[3,4-b]pyridin-2-yl)piperidin-4-yl)oxy)picolinonitrile] | 2.62
11 | Cc1cc2c(nc1N1CCC(Oc3ccon3)CC1)CNC2=O [Example 86, 2-(4-(isoxazol-3-yloxy)piperidin-1-yl)-3-methyl-6,7-dihydro-5H-pyrrolo[3,4-b]pyridin-5-one] | 5.69
12 | COC(=O)c1ccc(OC2CCN(c3nc4c(cc3C)C(=O)NC4)CC2)cn1 [Example 87, methyl 5-((1-(3-methyl-5-oxo-6,7-dihydro-5H-pyrrolo[3,4-b]pyridin-2-yl)piperidin-4-yl)oxy)picolinate] | 1
13 | Cc1cc2c(nc1N1CCC(Oc3ccc(C(F)(F)F)nc3)CC1)CNC2=O [Example 88, 3-methyl-2-(4-((6-(trifluoromethyl)pyridin-3-yl)oxy)piperidin-1-yl)-6,7-dihydro-5H-pyrrolo[3,4-b]pyridin-5-one] | 0.381
14 | Cc1cc2c(nc1N1CCC(Oc3ccc4ncoc4c3)CC1)CNC2=O [Example 89, 2-(4-(benzo[d]oxazol-6-yloxy)piperidin-1-yl)-3-methyl-6,7-dihydro-5H-pyrrolo[3,4-b]pyridin-5-one] | 0.083
15 | COc1cc(OC2CCN(c3nc4c(cc3C)C(=O)NC4)CC2)ccn1 [Example 90, 2-(4-((2-methoxypyridin-4-yl)oxy)piperidin-1-yl)-3-methyl-6,7-dihydro-5H-pyrrolo[3,4-b]pyridin-5-one] | 0.094
16 | Cc1cc2c(nc1N1CCC(Oc3ccc(F)nc3)CC1)CNC2=O [Example 91, 2-(4-((6-fluoropyridin-3-yl)oxy)piperidin-1-yl)-3-methyl-6,7-dihydro-5H-pyrrolo[3,4-b]pyridin-5-one] | 0.06
17 | Cc1cc2c(nc1N1CCC(Oc3ccc4cccnc4c3)CC1)CNC2=O [Example 92, 3-methyl-2-(4-(quinolin-7-yloxy)piperidin-1-yl)-6,7-dihydro-5H-pyrrolo[3,4-b]pyridin-5-one] | 0.461

Row | SMILES | EC50 [µM]
18 | Cc1cc2c(nc1N1CCC(Oc3ccnc(C#N)c3)CC1)CNC2=O [Example 93, 4-((1-(3-methyl-5-oxo-6,7-dihydro-5H-pyrrolo[3,4-b]pyridin-2-yl)piperidin-4-yl)oxy)picolinonitrile] | 0.944
19 | CCc1cc2c(nc1N1CCC(Oc3cccc(C#N)c3)CC1)CNC2=O [Example 93A, 3-((1-(3-ethyl-5-oxo-6,7-dihydro-5H-pyrrolo[3,4-b]pyridin-2-yl)piperidin-4-yl)oxy)benzonitrile] | 0.148
20 | COc1ncc(OC2CCN(c3nc4c(cc3C)C(=O)NC4)CC2)cn1 [Example 94, 2-(4-((2-methoxypyrimidin-5-yl)oxy)piperidin-1-yl)-3-methyl-6,7-dihydro-5H-pyrrolo[3,4-b]pyridin-5-one] | 1.73
21 | Cc1c(N2CCC(Oc3cccc(C#N)c3)CC2)nc2c(c1C)C(=O)NC2 [Example 94A, 3-((1-(3,4-dimethyl-5-oxo-6,7-dihydro-5H-pyrrolo[3,4-b]pyridin-2-yl)piperidin-4-yl)oxy)benzonitrile] | 0.193
22 | Cc1cc2c(nc1N1[C@@H]3CC[C@H]1C[C@@H](Oc1cccc(C#N)c1)C3)CNC2=O [Example 95, 3-((endo-8-(3-methyl-5-oxo-6,7-dihydro-5H-pyrrolo[3,4-b]pyridin-2-yl)-8-azabicyclo[3.2.1]octan-3-yl)oxy)benzonitrile] | 0.616
23 | Cc1cc2c(nc1N1[C@@H]3CC[C@H]1C[C@H](Oc1cccc(C#N)c1)C3)CNC2=O [Example 96, 3-((exo-8-(3-methyl-5-oxo-6,7-dihydro-5H-pyrrolo[3,4-b]pyridin-2-yl)-8-azabicyclo[3.2.1]octan-3-yl)oxy)benzonitrile] | 1.43
24 | COc1ccc(O[C@H]2C[C@H]3CC[C@@H](C2)N3c2nc3c(cc2C)C(=O)NC3)cn1 [Example 97, 2-(endo-3-((6-methoxypyridin-3-yl)oxy)-8-azabicyclo[3.2.1]octan-8-yl)-3-methyl-6,7-dihydro-5H-pyrrolo[3,4-b]pyridin-5-one] | 0.8
25 | Cc1cc2c(nc1N1[C@@H]3CC[C@H]1C[C@H](Oc1ccc4c(cnn4C)c1)C3)CNC2=O [Example 98, 3-methyl-2-(exo-3-((1-methyl-1H-indazol-5-yl)oxy)-8-azabicyclo[3.2.1]octan-8-yl)-6,7-dihydro-5H-pyrrolo[3,4-b]pyridin-5-one] | 0.522
26 | COc1ccc(O[C@@H]2C[C@H]3CC[C@@H](C2)N3c2nc3c(cc2C)C(=O)NC3)cn1 [Example 99, 2-(exo-3-((6-methoxypyridin-3-yl)oxy)-8-azabicyclo[3.2.1]octan-8-yl)-3-methyl-6,7-dihydro-5H-pyrrolo[3,4-b]pyridin-5-one] | 0.735
27 | Cc1cc2c(nc1N1[C@@H]3CC[C@H]1C[C@@H](Oc1ccc4c(cnn4C)c1)C3)CNC2=O [Example 100, 3-methyl-2-(endo-3-((1-methyl-1H-indazol-5-yl)oxy)-8-azabicyclo[3.2.1]octan-8-yl)-6,7-dihydro-5H-pyrrolo[3,4-b]pyridin-5-one] | 1.03
28 | COc1cncc(OC2CCN(c3nc4c(cc3C)C(=O)NC4)CC2)c1 [Example 101, 2-(4-((5-methoxypyridin-3-yl)oxy)piperidin-1-yl)-3-methyl-6,7-dihydro-5H-pyrrolo[3,4-b]pyridin-5-one] | 0.869
29 | Cc1cc2c(nc1N1CCC(Oc3ccnc(OC(F)(F)F)c3)CC1)CNC2=O [Example 102, 3-methyl-2-(4-((2-(trifluoromethoxy)pyri-din-4-yl)oxy)piperidin-1-yl)-6,7-dihydro-5H-pyrrolo[3,4-b]pyridin-5-one] | 0.69
30 | Cc1cc2c(nc1N1CCC(Oc3cncc(F)c3)CC1)CNC2=O [Example 103, 2-(4-((5-fluoropyridin-3-yl)oxy)piperidin-1-yl)-3-methyl-6,7-dihydro-5H-pyrrolo[3,4-b]pyridin-5-one] | 0.138
31 | Cc1cc2c(nc1N1CCC(Oc3ccc(N)nc3)CC1)CNC2=O [Example 104, 2-(4-((6-aminopyridin-3-yl)oxy)piperidin-1-yl)-3-methyl-6,7-dihydro-5H-pyrrolo[3,4-b]pyridin-5-one] | 0.06
32 | Cc1cc2c(nc1N1CCC(Oc3ccc(N4CCC4)nc3)CC1)CNC2=O [Example 105, 2-(4-((6-(azetidin-1-yl)pyridin-3-yl)oxy)piperidin-1-yl)-3-methyl-6,7-dihydro-5H-pyrrolo[3,4-b]pyridin-5-one] | 0.104
33 | Cc1cc2c(nc1N1CCC(Oc3ccc(N(C)C)nc3)CC1)CNC2=O [Example 106, 2-(4-((6-(dimethylamino)pyridin-3-yl)oxy)piperidin-1-yl)-3-methyl-6,7-dihydro-5H-pyrrolo[3,4-b]pyridin-5-one] | 0.298
34 | Cc1cc2c(nc1N1CCC(Oc3ccc4c(c3)NCCO4)CC1)CNC2=O [Example 107, 2-(4-((3,4-dihydro-2H-benzo[b][1,4]oxazin-6-yl)oxy)piperidin-1-yl)-3-methyl-6,7-dihydro-5H-pyrrolo[3,4-b]pyridin-5-one] | 0.087
